From PubChem BioAssay (NCI)
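Exposure lasted 48 hours, with cells grown in 96-well plates and compounds tested at five concentrations. Definition used: TGI = concentration required for complete inhibition of growth.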

Columns and labels:
Experiment in all cases: DTP human tumour cell line panel, 48 h
SK-OV-3 ovarian = test system: SK-OV-3 ovarian
ACHN renal = test system: ACHN renal
KM12 colon = test system: KM12 colon
A549 NSCLC = test system: A549 NSCLC
DMS 273 small cell lung = test system: DMS 273 small cell lung
CCRF-CEM leukemia = test system: CCRF-CEM leukemia
MDA-N = test system: MDA-N
COLO 205 colon = test system: COLO 205 colon
KM20L2 colon = test system: KM20L2 colon
SN12C renal = test system: SN12C renal
NCI-H226 lung = test system: NCI-H226 lung
EKVX NSCLC = test system: EKVX NSCLC
NCI-H460 lung = test system: NCI-H460 lung
RXF 393 renal = test system: RXF 393 renal
786-0 renal = test system: 786-0 renal
HCT-15 colon = test system: HCT-15 colon
TK-10 renal = test system: TK-10 renal
U251 CNS = test system: U251 CNS
HT29 colon = test system: HT29 colon
DLD-1 colon = test system: DLD-1 colon
SF-539 CNS = test system: SF-539 CNS
UACC-62 melanoma = test system: UACC-62 melanoma
SK-MEL-2 melanoma = test system: SK-MEL-2 melanoma
MDA-MB-231 breast = test system: MDA-MB-231 breast
NCI-H522 lung = test system: NCI-H522 lung
HOP-62 NSCLC = test system: HOP-62 NSCLC
BT-549 breast = test system: BT-549 breast
SW-620 colon = test system: SW-620 colon
SF-295 CNS = test system: SF-295 CNS
OVCAR-4 ovarian = test system: OVCAR-4 ovarian
HCT-116 colon = test system: HCT-116 colon
DU-145 prostate = test system: DU-145 prostate
OVCAR-3 ovarian = test system: OVCAR-3 ovarian
HL-60(TB) leukemia = test system: HL-60(TB) leukemia
MALME-3M melanoma = test system: MALME-3M melanoma
CAKI-1 renal = test system: CAKI-1 renal
UO-31 renal = test system: UO-31 renal
RXF-631 renal = test system: RXF-631 renal
HCC-2998 colon = test system: HCC-2998 colon
SF-268 CNS = test system: SF-268 CNS
PC-3 prostate = test system: PC-3 prostate
XF 498 CNS = test system: XF 498 CNS
SR leukemia = test system: SR leukemia
K-562 leukemia = test system: K-562 leukemia
SNB-78 CNS = test system: SNB-78 CNS
OVCAR-5 ovarian = test system: OVCAR-5 ovarian
LXFL 529 NSCLC = test system: LXFL 529 NSCLC
LOX IMVI melanoma = test system: LOX IMVI melanoma
MOLT-4 leukemia = test system: MOLT-4 leukemia
SK-MEL-5 melanoma = test system: SK-MEL-5 melanoma
UACC-257 melanoma = test system: UACC-257 melanoma
DMS 114 small cell lung = test system: DMS 114 small cell lung
A498 renal = test system: A498 renal
NCI-H23 lung = test system: NCI-H23 lung
M14 melanoma = test system: M14 melanoma
MDA-MB-435 = test system: MDA-MB-435
SNB-19 CNS = test system: SNB-19 CNS
IGROV1 ovarian = test system: IGROV1 ovarian
HS 578T breast = test system: HS 578T breast
M19-MEL melanoma = test system: M19-MEL melanoma
SNB-75 CNS = test system: SNB-75 CNS
RPMI-8226 leukemia = test system: RPMI-8226 leukemia
HOP-92 NSCLC = test system: HOP-92 NSCLC
OVCAR-8 ovarian = test system: OVCAR-8 ovarian
SK-MEL-28 melanoma = test system: SK-MEL-28 melanoma
T-47D breast = test system: T-47D breast
HOP-18 NSCLC = test system: HOP-18 NSCLC

`CCN(CC)CCNC(=O)c1nn(-c2ccc(Cl)cc2)c2c1CCc1cc(OC)ccc1-2` gave a TGI (SK-OV-3 ovarian) of 27.5 µM, a TGI (ACHN renal) of 23.7 µM and a TGI (KM12 colon) of 19.5 µM. For the same molecule, the TGI (A549 NSCLC) was 21.3 µM, the TGI (DMS 273 small cell lung) was 5.98 µM and the TGI (CCRF-CEM leukemia) was 20.1 µM. For the same molecule, the TGI (MDA-N) was 10.2 µM, the TGI (COLO 205 colon) was 6.42 µM and the TGI (KM20L2 colon) was 3.32 µM. For the same molecule, the TGI (SN12C renal) was 24.2 µM, the TGI (NCI-H226 lung) was 24.2 µM and the TGI (EKVX NSCLC) was 23.4 µM. For the same molecule, the TGI (NCI-H460 lung) was 11.8 µM, the TGI (RXF 393 renal) was 8.99 µM and the TGI (786-0 renal) was 12 µM. It also gave a TGI (HCT-15 colon) of 7.81 µM, a TGI (TK-10 renal) of 23.8 µM and a TGI (U251 CNS) of 17.8 µM. It also gave a TGI (HT29 colon) of 6.7 µM, a TGI (DLD-1 colon) of 14.2 µM and a TGI (SF-539 CNS) of 13.4 µM. It also gave a TGI (UACC-62 melanoma) of 7.58 µM, a TGI (SK-MEL-2 melanoma) of 3.18 µM and a TGI (MDA-MB-231 breast) of 24.5 µM. It also gave a TGI (NCI-H522 lung) of 11 µM, a TGI (HOP-62 NSCLC) of 29.2 µM and a TGI (BT-549 breast) of 32.1 µM. For the same molecule, the TGI (SW-620 colon) was 7.59 µM, the TGI (SF-295 CNS) was 7.37 µM and the TGI (OVCAR-4 ovarian) was 21.9 µM. The TGI (HCT-116 colon) was 13.3 µM, the TGI (DU-145 prostate) was 29.1 µM and the TGI (OVCAR-3 ovarian) was 20.6 µM. For the same molecule, the TGI (HL-60(TB) leukemia) was 14.5 µM, the TGI (MALME-3M melanoma) was 2.95 µM and the TGI (CAKI-1 renal) was 19.9 µM. It also gave a TGI (UO-31 renal) of 9.24 µM, a TGI (RXF-631 renal) of 3.16 µM and a TGI (HCC-2998 colon) of 5.52 µM. For the same molecule, the TGI (SF-268 CNS) was 22.2 µM, the TGI (PC-3 prostate) was 26.3 µM and the TGI (XF 498 CNS) was 17.6 µM. It also gave a TGI (SR leukemia) of 22 µM, a TGI (K-562 leukemia) of 11.1 µM and a TGI (SNB-78 CNS) of 24.2 µM. The TGI (OVCAR-5 ovarian) was 15 µM, the TGI (LXFL 529 NSCLC) was 16.4 µM and the TGI (LOX IMVI melanoma) was 4.11 µM. It also gave a TGI (MOLT-4 leukemia) of 28.5 µM, a TGI (SK-MEL-5 melanoma) of 3.17 µM and a TGI (UACC-257 melanoma) of 3.57 µM. It also gave a TGI (DMS 114 small cell lung) of 6.68 µM, a TGI (A498 renal) of 21.9 µM and a TGI (NCI-H23 lung) of 25.8 µM. It also gave a TGI (M14 melanoma) of 5.86 µM, a TGI (MDA-MB-435) of 23.6 µM and a TGI (SNB-19 CNS) of 23.2 µM. For the same molecule, the TGI (IGROV1 ovarian) was 26.6 µM, the TGI (HS 578T breast) was 13.8 µM and the TGI (M19-MEL melanoma) was 7.11 µM. It also gave a TGI (SNB-75 CNS) of 14.5 µM, a TGI (RPMI-8226 leukemia) of 8.72 µM and a TGI (HOP-92 NSCLC) of 15.8 µM. It also gave a TGI (OVCAR-8 ovarian) of 28.2 µM, a TGI (SK-MEL-28 melanoma) of 4.23 µM and a TGI (T-47D breast) of 21 µM. For the same molecule, the TGI (HOP-18 NSCLC) was 28.7 µM.
